Experimental data: ChEMBL document CHEMBL5360560, “Anti-Vibrio potential of natural products from marine microorganisms” (Eur J Med Chem, 2023)
Converted amounts (≈) assume the structure as drawn. Each block holds one compound with its values, some of them ahead of it.

What was measured:
Vibrio harveyi [1] = assay: Antimicrobial activity against Vibrio harveyi BB120 assessed as bacterial growth inhibition by bioluminescence based Quorum-Sensing assay; format: functional, organism-based
Vibrio alginolyticus = assay: Antimicrobial activity against Vibrio alginolyticus assessed as bacterial growth inhibition by broth dilution assay; format: functional
Vibrio parahaemolyticus [2] = assay: Antimicrobial activity against Vibrio parahaemolyticus assessed as bacterial growth inhibition by broth dilution assay; format: functional
Vibrio anguillarum [3] = assay: Antimicrobial activity against Vibrio anguillarum assessed as bacterial growth inhibition by broth dilution assay; format: functional
Vibrio harveyi [4] = assay: Antimicrobial activity against Vibrio harveyi QDIO-7 assessed as bacterial growth inhibition by microplate reader assay; format: functional
Vibrio vulnificus = assay: Antimicrobial activity against Vibrio vulnificus assessed as bacterial growth inhibition; format: functional
Vibrio anguillarum [5] = assay: Antimicrobial activity against Vibrio anguillarum assessed as bacterial growth inhibition by microplate reader assay; format: functional
Vibrio harveyi [6] = assay: Antimicrobial activity against Vibrio harveyi assessed as bacterial growth inhibition by microplate reader assay; format: functional
Vibrio anguillarum [7] = assay: Antimicrobial activity against Vibrio anguillarum assessed as zone of inhibition per disc at 100 ug measured after 24 hrs by disc diffusion assay; format: functional; settings: read-out: IZ
Vibrio parahaemolyticus [8] = assay: Antimicrobial activity against Vibrio parahaemolyticus assessed as bacterial growth inhibition; format: functional
Vibrio harveyi [9] = assay: Antimicrobial activity against Vibrio harveyi assessed as bacterial growth inhibition; format: functional
Vibrio anguillarum [10] = assay: Antimicrobial activity against Vibrio anguillarum QDIO-6 assessed as bacterial growth inhibition by microtiter plate assay; format: functional
Vibrio harveyi [11] = assay: Antibacterial activity against Vibrio harveyi assessed as bacterial growth inhibition; format: functional
Vibrio anguillarum [12] = assay: Antibacterial activity against Vibrio anguillarum assessed as bacterial growth inhibition; format: functional
Vibrio anguillarum [13] = assay: Antimicrobial activity against Vibrio anguillarum assessed as bacterial growth inhibition; format: functional

Compound: CCOC(=O)C[C@H](O)COC(=O)/C=C/CCl
- IC50 (Vibrio harveyi [1]): 17.6 µM

- MIC (Vibrio alginolyticus): 12.5 µM
- MIC (Vibrio anguillarum [3]): 12.5 µM
Compound: CC(=O)O[C@H]1CC[C@@]2(C)[C@@H](CC[C@H]3Cc4c([nH]c5ccccc45)[C@@]32C)[C@]1(C)CC[C@@H](O)C(C)(C)O
- MIC (Vibrio parahaemolyticus [2]): 12.5 µM

- MIC (Vibrio harveyi [4]): 64 µg/mL
Compound: CC(C)/C=C1\NC(=O)[C@@H](Cc2ccccc2)n2c1nc1ccccc1c2=O

Compound: CCCCCC(=O)NCCc1ccccc1
- IC50 (Vibrio harveyi [1]): 99 µM

- MIC (Vibrio vulnificus): 32 µg/mL (≈ 135 µM)
Compound: COc1cc(O)c2c(=O)c(C)c(C)oc2c1O

- MIC (Vibrio harveyi [4]): 64 µg/mL
Compound: CC[C@H](C)[C@@H]1NC(=O)[C@@H](Cc2ccccc2)n2c1nc1c(c2=O)C=CC=CO1

- MIC (Vibrio alginolyticus): 25 µg/mL
- MIC (Vibrio anguillarum [3]): 25 µg/mL
Compound: C/C(=C\[C@H]1OC(=O)[C@@H](C)[C@@H]1C)[C@H]1CCC2=C3C=CC4=CC(=O)CC[C@]4(C)[C@H]3CC[C@@]21C
- MIC (Vibrio parahaemolyticus [2]): 25 µg/mL

- MIC (Vibrio alginolyticus): 1.56 µM
- MIC (Vibrio anguillarum [3]): 1.56 µM
Compound: C=C(C)[C@@H]1COc2c(C)cc3oc4c(C[C@H](OC(C)=O)C(C)(C)O)ccc(O)c4c(=O)c3c2[C@@H]1O
- MIC (Vibrio parahaemolyticus [2]): 1.56 µM

- MIC (Vibrio vulnificus): 64 µg/mL (≈ 256 µM)
Compound: COc1cc(O)c2c(=O)c(C)c(C)oc2c1OC

- MIC (Vibrio anguillarum [5]): 4 µg/mL
- MIC (Vibrio harveyi [6]): 4 µg/mL
Compound: C[C@@]1(O)C=C[C@H]2C[C@@H](CO)CC[C@@H]2[C@@]1(C)C(=O)CCO

Compound: C[C@@H]1C[C@H](O)CC(=O)C/C=C/[C@@H](O)CC(=O)O1
- MIC (Vibrio parahaemolyticus [2]): 25 µM

- MIC (Vibrio anguillarum [5]): 4 µg/mL
- MIC (Vibrio harveyi [6]): 4 µg/mL
Compound: C[C@@H]1CC[C@@H]2[C@H](C=C[C@](C)(O)[C@@]2(C)C(=O)CCO)C1

Compound: CO[C@@H]1CC(=O)C/C=C/[C@@H](O)CC(=O)O[C@H](C)C1
- MIC (Vibrio parahaemolyticus [2]): 12.5 µM

Compound: O=C1N[C@](O)(Cc2ccccc2)C(=O)N2CCC[C@H]12
- zone of inhibition at 100 µg/disc (Vibrio anguillarum [7]): 20 mm

Compound: COc1cc(O)c2c(c1)C(=O)[C@@H]1C[C@](C)(O)[C@H](O)[C@H](O)[C@]1(O)C2=O
- MIC (Vibrio parahaemolyticus [8]): 50 µM (≈ 16.9 µg/mL)

Compound: COc1ccc2c3c4n(c2c1)C(C=C(C)C)OOC(C)(C)C[C@@H]4N1C(=O)[C@@H]2CCCN2C(=O)[C@]1(O)[C@H]3O (some centres not stated)
- MIC (Vibrio harveyi [9]): 16 µg/mL

- MIC (Vibrio anguillarum [10]): 2 µg/mL
Compound: COC(=O)[C@H](O)CS[C@@H]1CCCCCCC[C@@H](C)OC(=O)C1

- MIC (Vibrio harveyi [9]): 50 µM
Compound: Nc1ccccc1C(=O)C[C@H]1NC(=O)[C@H]2CCCN2C1=O

- MIC (Vibrio harveyi [11]): 32 µg/mL (≈ 165 µM)
- MIC (Vibrio anguillarum [12]): 0.5 µg/mL (≈ 2.57 µM)
Compound: C[C@@H]1Cc2ccc(O)c(O)c2C(=O)O1

- MIC (Vibrio harveyi [6]): 8 µg/mL
Compound: CC(C)/C=C1/NC(=O)[C@H](CCC(N)=O)n2c1nc1ccccc1c2=O

- MIC (Vibrio harveyi [9]): 16 µg/mL
Compound: O=C1NCc2nc3ccccc3c(=O)n2C1Cc1c[nH]c2ccccc12 (configuration not stated)

Compound: COc1c(Cl)c(O)cc2c1C(=O)c1c(O)cc(COC(C)=O)cc1C2=O
- MIC (Vibrio parahaemolyticus [2]): 10 µM

Compound: CC[C@H](C)C[C@H](C)/C=C(\C)c1cc(=O)cc(O)o1
- MIC (Vibrio parahaemolyticus [2]): 6.25 µg/mL

- MIC (Vibrio harveyi [9]): 16 µg/mL
Compound: O=C1N[C@@H]2c3nc4ccccc4c(=O)n3[C@H]1CC21C(=O)Nc2ccccc21 (some centres not stated)

- MIC (Vibrio anguillarum [10]): 4 µg/mL
Compound: COC(=O)[C@H](O)CS[C@H]1CC(=O)O[C@H](C)CCCCCC[C@@H]1O

- MIC (Vibrio harveyi [6]): 8 µg/mL
Compound: COC(=O)CC[C@H]1C(=O)N/C(=C\C(C)C)c2nc3ccccc3c(=O)n21

- MIC (Vibrio anguillarum [5]): 4 µg/mL
- MIC (Vibrio harveyi [6]): 4 µg/mL
Compound: C[C@@]12C=C[C@@H]3C[C@H](CO)CC[C@@H]3[C@]1(C)C(=O)C=CO2

- MIC (Vibrio harveyi [11]): 0.5 µg/mL (≈ 2.48 µM)
Compound: CCCCc1cc(O)c2ccccc2n1

- MIC (Vibrio alginolyticus): 1.56 µM
- MIC (Vibrio anguillarum [3]): 1.56 µM
Compound: C=C(C)[C@H]1COc2c(C)cc3oc4c([C@@H](OC)[C@@H](O)C(=C)C)ccc(O)c4c(=O)c3c2[C@@H]1O
- MIC (Vibrio parahaemolyticus [2]): 1.56 µM

- MIC (Vibrio anguillarum [3]): 5 µg/mL
Compound: COc1cc(O)c2c(c1)C(=O)C1=C(C[C@@H](O)[C@@](C)(O)C1)C2=O [ALTERSOLANOL B]
- MIC (Vibrio parahaemolyticus [8]): 25 µM (≈ 7.61 µg/mL)
- MIC (Vibrio parahaemolyticus [2]): 2.5 µg/mL

- MIC (Vibrio harveyi [6]): 8 µg/mL
Compound: CC(C)/C=C1\NC(=O)[C@H](CCC(N)=O)n2c1nc1ccccc1c2=O [AURANTIOMIDE C]

- MIC (Vibrio harveyi [11]): 32 µg/mL (≈ 145 µM)
- MIC (Vibrio anguillarum [12]): 0.5 µg/mL (≈ 2.27 µM)
Compound: C[C@H](O)[C@H](Cl)C1=C[C@H](O)[C@@H](C)OC1=O [CHLOROHYDROASPYRONE A]

- MIC (Vibrio harveyi [11]): 32 µg/mL (≈ 145 µM)
- MIC (Vibrio anguillarum [12]): 0.5 µg/mL (≈ 2.27 µM)
Compound: C[C@H](Cl)[C@@H](O)C1=C[C@H](O)[C@@H](C)OC1=O [CHLOROHYDROASPYRONE B]

- MIC (Vibrio harveyi [9]): 32 µg/mL
- MIC (Vibrio anguillarum [13]): 20 µM (≈ 6.63 µg/mL)
Compound: O=C(O)c1cn(C2CC2)c2cc(N3CCNCC3)c(F)cc2c1=O [CIPROFLOXACIN]
- zone of inhibition at 100 µg/disc (Vibrio anguillarum [7]): 26 mm

- MIC (Vibrio harveyi [11]): 32 µg/mL (≈ 188 µM)
- MIC (Vibrio anguillarum [12]): 0.5 µg/mL (≈ 2.94 µM)
Compound: C=C(C)C1(O)OC(=O)C=C1OC (configuration not stated) [PENICILLIC ACID]

- MIC (Vibrio alginolyticus): 1.56 µM
- MIC (Vibrio anguillarum [3]): 1.56 µM
Compound: C=C(C)[C@H]1COc2c(C)cc3oc4c(C[C@H](O)C(C)(C)O)ccc(O)c4c(=O)c3c2[C@@H]1O [TAJIXANTHONEHYDRATE]
- MIC (Vibrio parahaemolyticus [2]): 1.56 µM
